Reference: patent US20260335223A1, “Topical Copolymer Formulations for Hydrophobic Drug Delivery” (1376683 B.C. LTD, priority 2023, published 2026)
Values after ≈ are worked out from the molar mass of the structure shown.

Legend:
osteoarthritis = experiment: Therapeutic efficacy case reports, osteoarthritis (VAS pain); type: in vivo, human
Description: (§1) In all cases, therapeutic efficacy studies were carried out with volunteer participants under the supervision of a healthcare practitioner. In all cases, informed consent was obtained. Participants were blinded to the DBC content of the gel samples provided. Participants were offered samples of control cannabinoid gel (no DBC) and asked to apply to the affected area twice daily and as needed for one week. Participants were told to maintain adherence to any prescribed medications while using the cannabinoid gel. Participants were contacted immediately after the one week treatment period for assessment. Following a washout period ranging from 4 to 12 weeks, participants were offered samples of DBC cannabinoid gel and asked to apply in the same manner, twice daily and as needed for one week, while maintaining adherence to any prescribed medications. Participants were contacted immediately after the one week treatment period for assessment. Efficacy was assessed using average daily 10-point visual analogue scale (VAS) pain score prior to beginning treatment and immediately after treatment. Participants were also asked to report all adverse effects experienced, if any, such as skin irritation, skin rash, localized or diffuse discomfort or pain, dizziness, fatigue, impaired concentration, feelings of euphoria or dysphoria, or other psychotropic effects.

rheumatoid arthritis = experiment: Therapeutic efficacy case report, rheumatoid arthritis (VAS pain); type: in vivo, human
Description: as §1

[1] = background statement; cited from earlier work
[2] = Aqueous solubility with/without diblock copolymer (visual, film rehydration)
Description: In these studies the cannabinoid and diblock copolymer are dissolved in ethanol and dried to a film. Warm water is added and solubility is assessed by an optically clear solution or via HPLC or UV/Vis spectrophotometry.
Specific methodologies for aqueous solubility studies were as follows. Drug solutions having a concentration of 10 mg/mL were prepared by weighing drug and dissolving in an appropriate amount of ethanol in glass vials. Control drug samples (no diblock copolymer) were prepared by measuring 1 mL of room temperature distilled water in a glass vial and adding an appropriate volume of 10 mg/mL ethanol drug solution, followed by gentle mixing.
Drug samples with diblock copolymer (60:40 MePEG: PLLA, MW 3333 Da “DBC3333”; 57:43 MePEG:PCL, MW 1320 Da “[COMPOUND LEFT OUT]”; 40:60 MePEG:PCL, MW 1890 Da “PCL10”; 30:70 MePEG:PCL, MW 12000 Da “PCL61”) were prepared by weighing diblock copolymer into glass vials then adding 800 microlitres ethanol followed by an appropriate volume of 10 mg/mL ethanol drug solution. The diblock copolymer was dissolved in the ethanol solution via gentle mixing and the solvent was then evaporated via warm oven heating at approximately 50 °C. Once completely dry, 1 ml distilled water was added to the vials followed by gentle mixing. All vials were capped and left at room temperature for 12 hours, at which time the vials were photographed for evidence of precipitation.

[3] = Preparation of homogenous aqueous carboxymethyl cellulose (CMC) gel; type: physicochemical
Text: This Example illustrates that DBC3333 allowed for CBD, CBN, finasteride and docetaxel to be prepared within aqueous carboxymethyl cellulose (CMC) gels for topical use. […]

[4] = Skin permeation, Franz diffusion cell; details: 3 hours
Description: To collect the data illustrated in this Example, fresh pig skin is placed on a Franz diffusion cell and the formulation of interest is applied to the outer skin surface. After three hours the cell is dismantled and the exposed circular area excised. […] The amount of drug in each section is then quantitated and expressed at mass of drug/gram of tissue.
For cannabinoid aqueous gel preparation for skin permeation study and therapeutic efficacy studies, a water-based gel comprised of water, phenoxyethanol, ethylhexyl glycerin, acrylates/C10-30 alkyl acrylate crosspolymer, sodium hydroxide and allantoin, was used as the gel base. Gel base and diblock copolymer were weighed, mixed together and heated using a microwave for 4 seconds. A homogenous gel containing diblock copolymer was achieved via levigation of the mixture. Gel base without diblock copolymer was weighed and used for the control formula. Commercial cannabinoid-containing extracts containing known quantities of cannabinoid were weighed and dissolved in a pre-weighed amount of cacao butter over 45 °C heat. The cacao butter cannabinoid mixture was then weighed and incorporated into the gel base, with or without diblock copolymer, via levigation to produce the final gel samples. Cannabinoid content of the final gel samples was analyzed using HPLC. […] Gel samples were stored in air-tight containers at 4 °C until the time of use.
For carboxymethyl cellulose (CMC) gel and Glaxal® base preparation for skin permeation study of cannabidiol (CBD), curcumin, capsaicin and finasteride, CMC gel was made using medium viscosity CMC as a 2% w/v aqueous solution following overnight stirring. […] For CMC preparations containing DBC, DBC was weighed into a glass vial and a small volume of the drug of interest in acetonitrile:methanol (50:50) was added to dissolve all. The solution was then dried for 2 hours in a warm oven (50 °C). In all cases the ratio of DBC:drug was 95:5. A known weight of CMC gel was then added to the warmed vial containing the dried DBC/drug mixture and vortexed to disperse and dissolve all drug. Glaxal® base was used as received. Glaxal® base containing drug was prepared by first weighing drug and dissolving in a known volume of ethanol or methanol. The ethanol or methanol drug solution was then added to a weighed amount of Glaxal® base followed by levigation of the mixture. For CBD, capsaicin, docetaxel and finasteride, it was not possible to prepare CMC gels without the use of DBC, due to drug insolubility. Therefore Glaxal® base preparations containing these drugs were employed as DBC-free comparison groups (control) for skin permeation studies.
For carboxymethyl cellulose (CMC) gel and Glaxal® base preparation for skin permeation study of docetaxel, 2% CMC gel was prepared as described above. Docetaxel (DTX) 6 mg was weighed into 190 μL of acetonitrile and 10 μL of 3H radiolabeled DTX was added. Then 66 μL (i.e., 2 mg of drug) was pipetted into a vial with 40 mg of DBC to dissolve all. The contents were dried down and 1 mL of warm 2% CMC gel was added with vortexing to dissolve all DBC and drug as a micellar solution. For Glaxal® paste 66 μL of the drug solution was dried down to approximately 20 μL and 1 gram of Glaxal® base added to disperse the drug.
Fresh pig skin was obtained from a butcher and defatted to 5 mm thickness and shaved. 2 cm^2 pieces were cut with scissors and placed on Franz diffusion cells filled with PBS and clamped. 100 mg of each formulation was weighed and placed on top of the tissue and capped. The cells were placed in a 37 °C humid incubator for three hours and then dismantled. The tissue was washed three times with PBS and the centre drug-loaded circle of tissue was cut out with scissors and snap frozen. Tissues were sectioned by cryosectioning into 50 μm cuts pooled into groups of five.

[5] = Limit of aqueous solubility with/without PCL25 (HPLC or UV/VIS); type: physicochemical; details: water
Description: Aqueous solubility studies involving diblock copolymer PCL25 (63:37 MePEG:PCL MW 7900 Da) were carried out as follows. 1 mg of drug (either paclitaxel, capsaicin or curcumin) was added to glass vials, designated as either “control” or “diblock copolymer”. Diblock copolymer was omitted from control vials and 100 mg PCL25 was added to diblock copolymer vials. The contents of all vials were then dissolved in 300 microlitres of acetonitrile. The contents were dried at 60 °C for two hours and then 1 mL of warm water (40 °C) was added with vortexing for five minutes. To determine the limit of drug solubility, the contents of each vial were then placed in a microcentrifuge tube and centrifuged at 14000×g for 3 minutes to sediment any undissolved solids. The supernatant was diluted 50% in acetonitrile and the drug was quantitated by HPLC for paclitaxel and capsaicin or by UV/VIS spectrometry (420 nm) for curcumin after 100 fold dilution in acetonitrile for this drug. HPLC conditions were detection at 228 nm for both drugs and a mobile phase of 60:40 (paclitaxel) or 50:50 (capsaicin) acetonitrile:water flowing at 1 mL/min. Calibration standard for all drugs were run in acetonitrile.

[6] = Curcumin release from PVA film; type: physicochemical; details: for Curcumin released from PVA film: by 2 hours
Description: The 88% hydrolyzed version of PVA was used with a molecular weight of between 100000 and 150000 daltons. PVA was dissolved in water at 10% w/v by heating to 90 °C for one hour and then cooled. Separately, 40 mg of diblock copolymer DBC3333 was weighed into a glass vial and 100 μL of curcumin solution (10 mg/mL in ethanol) was added to 2 mL of the 10% PVA solution with mixing to give the non diblock casting solutions. Alternatively, 100 μL of the curcumin solution was added to 40 mg of diblock copolymer to dissolve it and then this was mixed with 2 mL of PVA solution. These give PVA films containing 20% diblock with approximately 0.5% curcumin (1 mg curcumin per film). The films were cast in small petri dishes and air dried at 37 °C for 4 hours.
This observational solubilization experiment added 2 mL of water to the film at t=0 and then at 5, 10, 25 mins the liquid was removed into a test tube for observation.
A second set of the same films were prepared and used for a drug release experiment whereby 10 mL of PBS (10 mM pH 7.4) was added to the films and at specified time points, 100 μL of solution was collected and added to 400 μL of water. The absorbance of these solutions was then measured at 420 nm by uv/vis absorbance.

[7] = control, no diblock copolymer, drug 300 μg/mL
[8] = control, no diblock copolymer, drug 600 μg/mL
[9] = control, no diblock copolymer, drug 1000 μg/mL
[10] = with DBC3333 50 mg/mL, drug 300 μg/mL
[11] = with DBC3333 50 mg/mL, drug 600 μg/mL
[12] = with DBC3333 50 mg/mL, drug 1000 μg/mL
[13] = with DBC3333 50 mg/mL, drug 2000 μg/mL
[14] = with DBC3333 50 mg/mL, drug 3000 μg/mL
[15] = topical, with DBC3333 vs formulation without
[16] = with diblock copolymer PCL25 100 mg/mL
[17] = control, no diblock copolymer, drug 1 μg/mL
[18] = control, no diblock copolymer, drug 10 μg/mL
[19] = control, no diblock copolymer, drug 100 μg/mL
[20] = control, no diblock copolymer, drug 250 μg/mL
[21] = control, no diblock copolymer, drug 500 μg/mL
[22] = diblock 0 mg/ml, drug 0.5 mg/ml
[23] = diblock (name withheld) 50 mg/ml, drug 1 mg/ml
[24] = diblock (name withheld) 50 mg/ml, drug 2 mg/ml
[25] = diblock (name withheld) 50 mg/ml, drug 3 mg/ml
[26] = diblock (name withheld) 50 mg/ml, drug 4 mg/ml
[27] = with DBC3333 20 mg/mL, drug 250 μg/mL
[28] = with DBC3333 20 mg/mL, drug 500 μg/mL
[29] = with DBC3333 20 mg/mL, drug 1000 μg/mL
[30] = with DBC3333 20 mg/mL, drug 2000 μg/mL
[31] = with DBC3333 20 mg/mL, drug 3000 μg/mL

CC(=O)Nc1ccc(O)cc1 [acetaminophen]
Participant's description of efficacy/pain (osteoarthritis; Case 1): little to no pain relief or prevention of pain during or after exercise

CC(C)Cc1ccc(C(C)C(=O)O)cc1 (centres unmarked) [ibuprofen]
VAS pain level after as-needed medication (osteoarthritis; Case 1, history, used when pain level reaches 4): 3 | Participant's description of efficacy (rheumatoid arthritis; Case 4): mildly effective | VAS pain level after ibuprofen 400 mg (rheumatoid arthritis; Case 4, history, from 4): 3

CCCCCc1cc(O)c2c(c1)OC(C)(CCC=C(C)C)C=C2 (centres unmarked) [CBC, cannabichromene]
Water solubility [1]: ~1 µg/mL

CC(C)(C)NC(=O)[C@H]1CC[C@H]2[C@@H]3CC[C@H]4NC(=O)C=C[C@]4(C)[C@H]3CC[C@]12C [finasteride]
Aqueous solubility [2, 7]: Insol. | Aqueous solubility [2, 8]: Insol. | Aqueous solubility [2, 9]: Insol. | Aqueous solubility [2, 10]: Soluble | Aqueous solubility [2, 11]: Partially | Aqueous solubility [2, 12]: Insol. | Aqueous solubility [2, 13]: Insol. | Aqueous solubility [2, 14]: Insol. | Preparation of homogenous CMC gel ([3]; with DBC3333): allowed | Preparation of homogenous CMC gel ([3]; without diblock copolymer): not possible to prepare homogenous CMC gel preparations | Skin permeation [4, 15]: enhanced skin permeation

CC(=O)O[C@H]1C(=O)[C@@]2(C)[C@H]([C@H](OC(=O)c3ccccc3)[C@]3(O)C[C@H](OC(=O)[C@H](O)[C@@H](NC(=O)c4ccccc4)c4ccccc4)C(C)=C1C3(C)C)[C@]1(OC(C)=O)CO[C@@H]1C[C@@H]2O [Paclitaxel, paclitaxel]
Solubility ([5]; control, no diblock copolymer): 2 µg/mL (≈ 2.34 µM) | Solubility [5, 16]: 488 µg/mL (≈ 571 µM)

COc1cc(CNC(=O)CCCC/C=C/C(C)C)ccc1O [Capsaicin, capsaicin]
Preparation of homogenous CMC gel ([3]; with PCL25): allowed | Preparation of homogenous CMC gel ([3]; without diblock copolymer): not possible to prepare homogenous CMC gel preparations | Solubility ([5]; control, no diblock copolymer): 10 µg/mL (≈ 32.7 µM) | Solubility [5, 16]: 506 µg/mL (≈ 1660 µM) | Skin permeation ([4]; CMC gel with PCL25 vs identical capsaicin content in Glaxal base): enhanced skin permeation

COc1cc(/C=C/C(=O)CC(=O)/C=C/c2ccc(O)c(OC)c2)ccc1O [Curcumin, curcumin]
Curcumin release rate from PVA film ([6]; DBC3333 20% w/w to PVA vs no diblock): much faster | Curcumin released from PVA film ([6]; DBC3333 20% w/w to PVA): all drug released | Yellow colour in dish (observational solubilization) ([6]; diblock containing film vs no diblock film): markedly stronger | Curcumin released from PVA film ([6]; no diblock copolymer, room temperature): 6% | Solubility ([5]; control, no diblock copolymer): < 1 µg/mL | Solubility [5, 16]: 1000 µg/mL (≈ 2710 µM) | Skin permeation [4, 15]: enhanced skin permeation

CC(=O)O[C@@]12CO[C@@H]1C[C@H](O)[C@@]1(C)C(=O)[C@H](O)C3=C(C)[C@@H](OC(=O)[C@H](O)[C@@H](NC(=O)OC(C)(C)C)c4ccccc4)C[C@@](O)([C@@H](OC(=O)c4ccccc4)[C@H]21)C3(C)C [docetaxel]
Preparation of homogenous CMC gel ([3]; with DBC3333): allowed | Preparation of homogenous CMC gel ([3]; without diblock copolymer): not possible to prepare homogenous CMC gel preparations | Skin permeation [4, 15]: enhanced skin permeation

CCCCCc1cc(O)c(C/C=C(\C)CCC=C(C)C)c(O)c1 [CBG, cannabigerol]
Aqueous solubility [2, 7]: Insol. | Aqueous solubility [2, 10]: Soluble | Aqueous solubility [2, 11]: Soluble | Aqueous solubility [2, 12]: Soluble | Aqueous solubility [2, 13]: Partially | Aqueous solubility [2, 14]: Insol. | Water solubility [1]: ~1 µg/mL

CCCCCc1cc(O)c2c(c1)OC(C)(C)c1ccc(C)cc1-2 [CBN, cannabinol]
Preparation of homogenous CMC gel ([3]; with DBC3333): allowed | Preparation of homogenous CMC gel ([3]; without diblock copolymer): not possible to prepare homogenous CMC gel preparations | Water solubility [1]: ~1 µg/mL | Skin permeation [4, 15]: enhanced skin permeation

CCCCCc1cc(O)c2c(c1)OC(C)(C)[C@@H]1CCC(C)=C[C@@H]21 [THC, tetrahydrocannabinol]
Aqueous solubility [2, 17]: Insol. | Aqueous solubility [2, 18]: Insol. | Aqueous solubility [2, 19]: Insol. | Aqueous solubility [2, 20]: Insol. | Aqueous solubility [2, 21]: Insol. | Aqueous solubility [2, 9]: Insol. | Aqueous solubility ([2]; control, no diblock copolymer, drug 2000 μg/mL): Insol. | Solubility [2, 22]: Insol. | Solubility ([2]; diblock 0 mg/ml, drug 1 mg/ml): Insol. | Solubility [2, 23]: soluble | Solubility [2, 24]: soluble | Solubility [2, 25]: soluble | Solubility [2, 26]: Soluble | Aqueous solubility [2, 27]: Soluble | Aqueous solubility [2, 28]: Soluble | Aqueous solubility [2, 29]: Partially | Aqueous solubility [2, 30]: Insol. | Aqueous solubility [2, 31]: Insol. | Aqueous solubility ([2]; with DBC3333 50 mg/mL, drug 500 μg/mL): Soluble | Aqueous solubility [2, 12]: Soluble | Aqueous solubility [2, 13]: Soluble | Aqueous solubility [2, 14]: Partially | Aqueous solubility ([2]; with DBC3333 50 mg/mL, drug 4000 μg/mL): Insol. | Water solubility [1]: ~1 µg/mL | Skin permeation [4, 15]: enhanced skin permeation

C=C(C)[C@@H]1CCC(C)=C[C@H]1c1c(O)cc(CCCCC)cc1O [CBD, cannabidiol]
Aqueous solubility [2, 7]: Insol. | Aqueous solubility [2, 8]: Insol. | Aqueous solubility [2, 9]: Insol. | Solubility [2, 22]: Insol. | Solubility ([2]; diblock 0 mg/ml, drug 1 mg/ml): Insol. | Solubility [2, 23]: soluble | Solubility [2, 24]: soluble | Solubility [2, 25]: Partially | Solubility [2, 26]: Insol. | Aqueous solubility [2, 10]: Soluble | Aqueous solubility [2, 11]: Soluble | Aqueous solubility [2, 12]: Soluble | Aqueous solubility [2, 13]: Partially | Aqueous solubility [2, 14]: Insol. | Preparation of homogenous CMC gel ([3]; with DBC3333): allowed | Preparation of homogenous CMC gel ([3]; with diblock copolymer (name withheld)): allowed | Preparation of homogenous CMC gel ([3]; without diblock copolymer): not possible to prepare homogenous CMC gel preparations | Water solubility [1]: ~1 µg/mL | Skin permeation ([4]; CMC gel with diblock copolymer (name withheld) vs identical CBD content in Glaxal base): enhanced skin permeation | Skin permeation [4, 15]: enhanced skin permeation

CCCCCc1cc2c(c(O)c1C(=O)O)[C@@H]1C=C(C)CC[C@H]1C(C)(C)O2 [THCA, tetrahydrocannabinolic acid]
Aqueous solubility [2, 17]: Soluble | Aqueous solubility [2, 18]: Insol. | Aqueous solubility [2, 19]: Insol. | Aqueous solubility [2, 20]: Insol. | Aqueous solubility [2, 21]: Insol. | Aqueous solubility [2, 9]: Insol. | Solubility [2, 22]: Insol. | Solubility ([2]; diblock 0 mg/ml, drug 1 mg/ml): Insol. | Solubility [2, 23]: soluble | Solubility [2, 24]: soluble | Solubility [2, 25]: soluble | Solubility [2, 26]: Soluble | Aqueous solubility [2, 27]: Soluble | Aqueous solubility [2, 28]: Soluble | Aqueous solubility [2, 29]: Soluble | Aqueous solubility [2, 30]: Partially | Aqueous solubility [2, 31]: Insol. | Skin permeation [4, 15]: enhanced skin permeation
